Measured values from patent publication US9920010B2, “CXCR7 receptor modulators” (IDORSIA PHARMACEUTICALS LTD, priority 2013, dated 2018).
pEC50: −log10 of the molar value.

molecular target: T1, CXCR7 (Homo sapiens, UniProt P25106); experiment: PathHunter CHO-K1 CXCR7 b-arrestin recruitment assay (CXCR7 agonistic activity); assay type: cell-based; conditions: PathHunter CHO-K1 CXCR7 b-arrestin cell line
T1 construct: host or cells: CHO-K1 (PathHunter CHO-K1 CXCR7 b-arrestin cell line, stably transfected)
T1 sequence (P25106 whole entry): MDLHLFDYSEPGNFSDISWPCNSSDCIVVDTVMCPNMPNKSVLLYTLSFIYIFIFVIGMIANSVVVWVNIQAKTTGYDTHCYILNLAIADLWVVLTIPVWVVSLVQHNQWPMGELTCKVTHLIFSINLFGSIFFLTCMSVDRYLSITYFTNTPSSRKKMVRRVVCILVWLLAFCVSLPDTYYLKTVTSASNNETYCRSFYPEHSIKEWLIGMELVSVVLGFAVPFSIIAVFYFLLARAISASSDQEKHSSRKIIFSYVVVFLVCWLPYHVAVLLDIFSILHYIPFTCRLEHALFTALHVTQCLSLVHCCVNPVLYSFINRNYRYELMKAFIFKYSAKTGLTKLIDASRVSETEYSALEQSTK
T1 sequence (P32121 whole entry partner): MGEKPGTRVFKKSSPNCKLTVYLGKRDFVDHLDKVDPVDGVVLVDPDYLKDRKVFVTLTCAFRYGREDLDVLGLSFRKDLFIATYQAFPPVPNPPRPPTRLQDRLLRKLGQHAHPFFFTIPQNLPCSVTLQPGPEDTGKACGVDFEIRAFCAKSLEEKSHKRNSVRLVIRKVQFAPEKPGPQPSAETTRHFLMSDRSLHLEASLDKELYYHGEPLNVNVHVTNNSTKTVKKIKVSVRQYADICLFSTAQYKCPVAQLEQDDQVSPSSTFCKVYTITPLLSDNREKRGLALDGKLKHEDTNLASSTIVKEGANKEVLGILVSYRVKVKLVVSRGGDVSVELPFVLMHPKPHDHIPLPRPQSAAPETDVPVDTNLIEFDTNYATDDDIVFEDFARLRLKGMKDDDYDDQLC
Description: The CXCl12 receptor and CXCR7 agonistic activities of the compounds of formula (I) are determined in accordance with the following experimental method.
The assay is using the PathHunter™ CHO-K1 CXCR7 b-arrestin cell line from DiscoverX. The system is based on the Enzyme Fragment Complementation Technology. Two complementing fragments of the b-galactosidase enzyme are expressed within stably transfected cells. The larger portion of b-gal, termed EA for Enzyme Acceptor, is fused to the C-terminus of b-arrestin 2. The smaller fragment, termed ProLink™ tag, is fused to CXCR7 at the C-terminus. Upon activation, b-arrestin is recruited which forces the interaction of ProLink and EA, allowing complementation of the two fragments of b-gal and the formation of a functional enzyme which is capable of hydrolysing the substrate and generating a chemiluminescent signal.
CHO-K1 CXCR7 b-arrestin cells are detached from culture dishes with a cell dissociation buffer (Invitrogen, #13151-014) and collected in growing medium (F12 HAMS 90% (v/v)/FCS 10% (v/v), Penicillin/streptomycin 1% (v/v)). 5000 cells per well (in 20 μl) are seeded in a 384 well plate (white-walled, clear bottom; BD Falcon #353274). The plate is incubated at 37° C./5% CO2 for 24 hours. Medium is then replaced by 20 μl OPTIMEM (Invitrogen #31985) for 3 to 4 hours. Test compounds are dissolved at 10 mM in DMSO and serially diluted in DMSO to 200× of the final concentration for dose response curves. Compounds are then diluted 1:33.3 in HBSS1×. 5 μl/well of HBSS1×/20 mM HEPES/0.2% BSA are added to the assay plate followed by addition of 5 μl/well of diluted compounds. CXCL12 (Peprotech #300-28A) may be used as a reference agonist. The plate is incubated for 90 minutes at 37° C. 12 μl of detection reagent (Path Hunter Detection Kit, DiscoveRx, #93-0001) is transferred to the assay plate and to the plate is incubated for 1 hour at room temperature. Luminescent signal is read in a microplate reader (FLUOstar Optima, bmg). The calculated EC50 values may fluctuate depending on the daily cellular assay performance. Fluctuations of this kind are known to those skilled in the art. Average EC50 values from several measurements are given as geometric mean values.

Row | SMILES | pEC50
1 | CC(C)(C)OC(=O)N1[C@H](CN(Cc2ccccc2C(F)(F)F)C(=O)CNc2cccc3c2CCN(CC2CC2)C3)COC1(C)C [Example 84, (R)-4-{[[2-(2-Cyclopropylmethyl-1,2,3,4-tetrahydro-isoquinolin-5-ylamino)-acetyl]-(2-trifluoromethyl-benzyl)-amino]-methyl}-2,2-dimethyl-oxazolidine-3-carboxylic acid tert-butyl ester] | 6.57
2 | CN(C)CCN(Cc1ccccc1C(F)(F)F)C(=O)Cc1cccc2c1CCN(CC1CC1)C2 [Example 6, 2-(2-Cyclopropylmethyl-1,2,3,4-tetrahydro-isoquinolin-5-yl)-N-(2-dimethylamino-ethyl)-N-(2-trifluoromethyl-benzyl)-acetamide] | 7.22
3 | CCN1Cc2cccc(NCC(=O)N(CCN3CCCC3)Cc3ccccc3C(F)(F)F)c2CC1=O [Example 311, 2-(2-Ethyl-3-oxo-1,2,3,4-tetrahydro-isoquinolin-5-ylamino)-N-(2-pyrrolidin-1-yl-ethyl)-N-(2-trifluoromethyl-benzyl)-acetamide] | 7.62
4 | CC(C)CN1Cc2cccc(NCC(=O)N(CCN(C)C)Cc3ccccc3C(F)(F)F)c2CC1=O [Example 312, N-(2-Dimethylamino-ethyl)-2-(2-isobutyl-3-oxo-1,2,3,4-tetrahydro-isoquinolin-5-ylamino)-N-(2-trifluoromethyl-benzyl)-acetamide] | 7.43
5 | CN(C)CCN(Cc1ccccc1C(F)(F)F)C(=O)C1(Nc2cccc3c2CCN(CC2CC2)C3)CC1 [Example 292, 1-(2-Cyclopropylmethyl-1,2,3,4-tetrahydro-isoquinolin-5-ylamino)-cyclopropanecarboxylic acid (2-dimethylamino-ethyl)-(2-trifluoromethyl-benzyl)-amide] | 6.99
6 | CN(C)CCN(Cc1ccccc1)C(=O)CNc1cccc2c1CCN(Cc1ccccc1)C2 [compound 123] | 6.92
7 | O=C(CNc1cccc2c1CCN(CC1CC1)C2)N(CCN1CCOCC1)Cc1ccccc1C(F)(F)F [Example 64, 2-(2-Cyclopropylmethyl-1,2,3,4-tetrahydro-isoquinolin-5-ylamino)-N-(2-morpholin-4-yl-ethyl)-N-(2-trifluoromethyl-benzyl)-acetamide] | 8.10
8 | CCN1CCc2cccc(NCC(=O)N(CCN(C)C)Cc3ccccc3C)c2C1 [compound 494, N-(2-Dimethylamino-ethyl)-2-(2-ethyl-1,2,3,4-tetrahydro-isoquinolin-8-ylamino)-N-(2-methyl-benzyl)-acetamide] | 7.55
9 | CC(C)CC(=O)N1CCc2c(cccc2NCC(=O)N(CCN(C)C)Cc2ccccc2)C1 [compound 119] | 7.06
10 | C=CCN1CCc2cccc(CCC(=O)N(CCN(C)C)Cc3ccccc3C(F)(F)F)c2C1 [compound 468, 3-(2-Allyl-1,2,3,4-tetrahydro-isoquinolin-8-yl)-N-(2-dimethylamino-ethyl)-N-(2-trifluoromethyl-benzyl)-propionamide] | 8.00
11 | CN(C)CCN(Cc1ccccc1C(F)(F)F)C(=O)CNc1cccc2c1CCN(C(=O)C(C)(F)F)C2 [Example 362, 2-[2-(2,2-Difluoro-propionyl)-1,2,3,4-tetrahydro-isoquinolin-5-ylamino]-N-(2-dimethylamino-ethyl)-N-(2-trifluoromethyl-benzyl)-acetamide] | 7.68
12 | CN(C)CCN(Cc1ccncc1)C(=O)CNc1cccc2c1CCN(CC1CC1)C2 [Example 268, 2-(2-Cyclopropylmethyl-1,2,3,4-tetrahydro-isoquinolin-5-ylamino)-N-(2-dimethylamino-ethyl)-N-pyridin-4-ylmethyl-acetamide] | 6.46
13 | CCN1CCc2cccc(NCC(=O)N(CCNC)Cc3ccccc3C(F)(F)F)c2C1 [compound 444, 2-(2-Ethyl-1,2,3,4-tetrahydro-isoquinolin-8-ylamino)-N-(2-methylamino-ethyl)-N-(2-trifluoromethyl-benzyl)-acetamide] | 7.82
14 | CCN1CCc2cccc(NCC(=O)N(CCN(C)C)Cc3ccccc3Cl)c2C1 [compound 500, N-(2-Chloro-benzyl)-N-(2-dimethylamino-ethyl)-2-(2-ethyl-1,2,3,4-tetrahydro-isoquinolin-8-ylamino)-acetamide] | 7.51
15 | CC(C)(C)CCN(Cc1ccccc1C(F)(F)F)C(=O)CNc1cccc2c1CCN(CC1CC1)C2 [Example 274, 2-(2-Cyclopropylmethyl-1,2,3,4-tetrahydro-isoquinolin-5-ylamino)-N-(3,3-dimethyl-butyl)-N-(2-trifluoromethyl-benzyl)-acetamide] | 6.75
16 | CNCCN(Cc1ccccc1C(F)(F)F)C(=O)CNc1cccc2c1CCN(C(=O)CC(C)(C)C)C2 [compound 393] | 6.96
17 | CN(C)CCN(Cc1ccccc1OC(F)(F)F)C(=O)CNc1cccc2c1CN(CC1CC1)CC2 [compound 472, 2-(2-Cyclopropylmethyl-1,2,3,4-tetrahydro-isoquinolin-8-ylamino)-N-(2-dimethylamino-ethyl)-N-(2-trifluoromethoxy-benzyl)-acetamide] | 7.68
18 | CN(C)CCN(Cc1ccccc1C(F)(F)F)C(=O)CCc1cccc2c1CCN(C(=O)OC(C)(C)C)C2 [Example 99, 5-{2-[(2-Dimethylamino-ethyl)-(2-trifluoromethyl-benzyl)-carbamoyl]-ethyl}-3,4-dihydro-1H-isoquinoline-2-carboxylic acid tert-butyl ester] | 6.75
19 | CC(C)(C)OC(=O)N1CCN(CCN(Cc2ccccc2C(F)(F)F)C(=O)CNc2cccc3c2CCN(CC2CC2)C3)CC1 [Example 216, 4-{2-[[2-(2-Cyclopropylmethyl-1,2,3,4-tetrahydro-isoquinolin-5-ylamino)-acetyl]-(2-trifluoromethyl-benzyl)-amino]-ethyl}-piperazine-1-carboxylic acid tert-butyl ester] | 7.47
20 | CN(C)CCN(Cc1ccccc1)C(=O)CNc1cccc2c1CN(C(=O)OC(C)(C)C)CC2 [Example 181, 8-({[Benzyl-(2-dimethylamino-ethyl)-carbamoyl]-methyl}-amino)-3,4-dihydro-1H-isoquinoline-2-carboxylic acid tert-butyl ester] | 6.93
21 | N#CCCN(Cc1ccccc1C(F)(F)F)C(=O)CNc1cccc2c1CCN(CC1CC1)C2 [Example 72, N-(2-Cyano-ethyl)-2-(2-cyclopropylmethyl-1,2,3,4-tetrahydro-isoquinolin-5-ylamino)-N-(2-trifluoromethyl-benzyl)-acetamide] | 7.55
22 | CCN1CCc2c(cccc2NCC(=O)N(CCN(C)C)Cc2ccccc2)C1 [compound 107, N-Benzyl-N-(2-dimethylamino-ethyl)-2-(2-ethyl-1,2,3,4-tetrahydro-isoquinolin-5-ylamino)-acetamide] | 7.37
23 | CCN(Cc1ccccc1Cl)C(=O)CNc1cccc2c1CCN(CC1CC1)C2 [Example 66, N-(2-Chloro-benzyl)-2-(2-cyclopropylmethyl-1,2,3,4-tetrahydro-isoquinolin-5-ylamino)-N-ethyl-acetamide] | 6.77
24 | CCN1CCc2cccc(NCC(=O)N(CCN(C)C)Cc3cccc(OC)c3)c2C1 [compound 498] | 6.93
25 | CC(C)CN1CCc2c(cccc2OCC(=O)N(CCN(C)C)Cc2ccccc2)C1 [compound 168, N-Benzyl-N-(2-dimethylamino-ethyl)-2-(2-isobutyl-1,2,3,4-tetrahydro-isoquinolin-5-yloxy)-acetamide] | 7.70
26 | CCN(CCN(Cc1ccccc1C(F)(F)F)C(=O)CNc1cccc2c1CCN(CC1CC1)C2)CC1(C)COC1 [compound 453] | 8.22
